≈ marks a conversion by molar mass, not a printed value.
Key:
Format in all cases: binding
[1] = system: rabbit anti-SDMA antibody in serum, Rabbit # 157 (SDMA conjugated with BSA immunogen); assay: Competitive ELISA, specificity of anti-SDMA antibody, Rabbit # 157; conditions: Rabbit # 157 (1:15K); for IC 50: competition with SDMA-HRP conjugate
Method: (§1) In order to assess the specificity of the antibodies obtained by the procedures described in Example 3 above, their reactivity to SDMA, ADMA, L-arginine, and/or N-methylarginine was measured in a competitive ELISA assay (Table 1).
(§2) ADMA-2HCl, SDMA-2HCl, N-methylarginine acetate (Sigma, Cat. No. M7033) or L-arginine (Sigma, Cat. No. A5006) were each dissolved in PBS to make stock solutions at 1 mg/ml. From these stock solutions, working solutions at 100 μg/ml, 10 μg/m and 1 μg/m were prepared in PBS.
(§3) […] After a 30 minutes incubation period at room temperature, the wells were washed 4 times with PBST (Phosphate Buffered Saline, 0.05% Tween).
(§4) 100 μl of 3,3′,5,5′-Tetramethylbenzidine (commercially available from Promega Corporation of Madison, Wis.) was subsequently added. Following a 30 minutes incubation period at room temperature, 100 μl of stop solution (1 N HCl) was added and the absorbance was measured at […] using a BioTek ELX 808 (Winooski, Vt.) plate reader. The data was subjected to quantification using Softmax software (Molecular Devices, Sunnyvale, Calif.).
(§5) The absorbance values obtained with 0 μg/mL, 1 μg/mL, 10 μg/mL, and 100 μg/mL of ADMA, SDMA, N-methylarginine or L-arginine, respectively, were determined and plotted. The concentration of SDMA at which the absorbance value was reduced by 50% (relative to the maximum absorbance obtained at 0 μg/mL SDMA; i.e. IC50) was divided by each of the concentrations of ADMA, N-methylarginine or L-arginine, respectively, at which the absorbance value was reduced by 50% (IC50). The resulting value was multiplied by 100 to obtain the value “% cross-reactivity”.

[2] = system: rabbit anti-SDMA antibody in serum, Rabbit # 156 (SDMA conjugated with BSA immunogen); assay: Competitive ELISA, specificity of anti-SDMA antibody, Rabbit # 156; conditions: Rabbit # 156 (1:20K); for IC 50: competition with SDMA-HRP conjugate
Method: as §1, §2, §3, §4, §5

[3] = system: rabbit anti-SDMA antibody in serum, Rabbit # 154 (SDMA conjugated with KLH immunogen); assay: Competitive ELISA, specificity of anti-SDMA antibody, Rabbit # 154; conditions: Rabbit # 154 (1.25K); for IC 50: competition with SDMA-HRP conjugate
Method: as §1, §2, §3, §4, §5

[4] = system: polyclonal antibody from Rabbit No. 154; assay: Specificity determined with greater stringency, polyclonal antibody from Rabbit No. 154; conditions: Rabbit No. 154, greater stringency
Method: as §1, §2
(§6) 50 μl of the SDMA-HRP conjugate (as described in Example 5 below), 50 μl of ADMA, SDMA, N-methylarginine or L-arginine (at concentrations from 1-100 μg/ml as described above), and 50 μl of rabbit anti-SDMA antibody in serum (1:3000 titer) were sequentially added to an individual well in a 96-well polystyrene microwell plate, precoated with sheep anti-rabbit IgG (commercially available from Beacon Analytical Systems Inc. of Portland, Me.). After a 30 minutes incubation period at room temperature, the wells were washed 4 times with PBST (Phosphate Buffered Saline, 0.05% Tween).
as §4
The absorbance values obtained with 0 μg/mL, 1 μg/mL, 10 μg/mL, and 100 μg/mL of ADMA, SDMA, N-methylarginine or L-arginine, respectively, were determined and plotted. […]
In another experiment, using only polyclonal antibody from Rabbit No. 154, the specificity of the antibody was determined with greater stringency by the method described above.

[5] = system: rabbit anti-SDMA antibody in serum, Rabbit # 153 (SDMA conjugated with KLH immunogen); assay: Competitive ELISA, specificity of anti-SDMA antibody, Rabbit # 153; conditions: Rabbit # 153 (1:2.5K); for IC 50: competition with SDMA-HRP conjugate
Method: as §1, §2, §3, §4, §5

[6] = system: rabbit anti-SDMA antibody in serum, Rabbit # 152 (SDMA conjugated with KLH immunogen); assay: Competitive ELISA, specificity of anti-SDMA antibody, Rabbit # 152; conditions: Rabbit # 152 (1:5K); for % Cross Reactivity: IC50 of SDMA divided by IC50 of competitor x 100; for IC 50: competition with SDMA-HRP conjugate, absorbance reduced by 50%
Method: as §1, §2, §3, §4, §5

[7] = system: rabbit anti-SDMA antibody in serum, Rabbit # 155 (SDMA conjugated with BSA immunogen); assay: Competitive ELISA, specificity of anti-SDMA antibody, Rabbit # 155; conditions: Rabbit # 155 (1:3K); for IC 50: competition with SDMA-HRP conjugate
Method: as §1, §2, §6, §4, §5

| Compound | % Cross Reactivity [1] [%] | IC 50 [1] [µg/mL] | % Cross Reactivity [2] [%] | IC 50 [2] [µg/mL] | % Cross Reactivity [3] [%] | IC 50 [3] [µg/mL] | Specificity (Cross-Reactivity) [4] [%] | % Cross Reactivity [5] [%] | IC 50 [5] [µg/mL] | % Cross Reactivity [6] [%] | IC 50 [6] [µg/mL] | % Cross Reactivity [7] [%] | IC 50 [7] [µg/mL] |
| --- | --- | --- | --- | --- | --- | --- | --- | --- | --- | --- | --- | --- | --- |
| CN(C)C(=N)NCCCC(N)C(=O)O (stereo not drawn) [ADMA, asymmetrical dimethylarginine] | <1 | >100 | <1 | >100 | <1 | >100 | <0.2 | <1 | >100 | <1 | >100 | <1 | >100 |
| CNC(=N)NCCCC(N)C(=O)O (stereo not drawn) [N-MMA, N-monomethylarginine] | <1 | >100 | <1 | >100 | <1 | >100 |  | <1 | >100 | <1 | >100 | <1 | 79 (≈ 420 µM) |
| N=C(N)NCCC[C@H](N)C(=O)O [L-Arginine, arginine] | <1 | >100 | <1 | >100 | <1 | >100 | <0.01 | <1 | >100 | <1 | >100 | <1 | >100 |
| C/N=C(\NC)NCCCC(N)C(=O)O (stereo not drawn) [SDMA, symmetrical dimethylarginine] | 100 | 1.6 (≈ 7.91 µM) | 100 | 1.3 (≈ 6.43 µM) | 100 | 0.49 (≈ 2.42 µM) | 100 | 100 | 0.65 (≈ 3.21 µM) | 100 | 1.10 (≈ 5.44 µM) | 100 | 0.73 (≈ 3.61 µM) |

From patent US8481690B2, “Methods for detecting symmetrical dimethylarginine” (IDEXX Laboratories, Inc., priority 2008, dated 2013)
